Values after ≈ are worked out from the molar mass of the structure shown. Like-named read-outs stand apart in the source and are kept apart here.
Legend:
MRSA 1369 = assay: Combined activity with gentamicin, vancomycin or ampicillin, MRSA 1369; format: cell-based, Methicillin-resistant Staphylococcus aureus; settings: subinhibitory compound 1-4 μM, OD600 24 h; for MRSA activity, combination with ampicillin compared to ampicillin alone or compound alone: ampicillin 16 μg/ml; for MRSA activity, combination with vancomycin compared to vancomycin alone or compound alone: vancomycin 1 μg/ml
Protocol: (§1) […]. The concentrations used in the experiments with E. faecalis OG1RF were 16 μg/ml gentamicin, 1 μg/ml vancomycin or 1 μg/ml ampicillin. In experiments where combinations were tested against MRSA 1369, 0.05 μg/ml gentamicin, 1 μg/ml vancomycin or 16 μg/ml ampicillin was used.
(§2) Bacterial cultures (190 μl) at a starting OD=0.001 at OD600 were incubated together with either subinhibitory concentrations of gentamicin/vancomycin/ampicillin or compound alone, or a combination of the two. The cultures (200 μl) were incubated at 37° C. for 24 h. A control sample without compound and gentamicin/vancomycin/ampicillin but containing compound vehicle (DMSO) and gentamicin/vancomycin/ampicillin vehicle (MQ water) was performed the same way. After 24 h, the effect on bacterial growth compared to untreated control samples was determined by measuring optical density at 600 nm with a spectrophotometer.

MRSA [1] = assay: Minimum Inhibitory Concentration (MIC) assay, MRSA; format: cell-based, Methicillin-resistant Staphylococcus aureus; settings: 24 h, no antibiotic, 37° C., n.d. = activity not observed at the concentrations tested, read-out: MIC for MRSA
Protocol: (§3) The cultures (200 μl) were incubated at 37° C. for 24 h. […] The MIC was measured in micromolar concentration, i.e. μM. Objectively, this was determined by measuring the optical density (i.e. OD) of the test cultures at 600 nm using a spectrophotometer. As used herein, OD600 stands for optical density at a wavelength of 600 nm (i.e. 600 nanometers).

E. faecalis [2] = assay: Minimum Inhibitory Concentration (MIC) assay, E. faecalis; format: cell-based, Enterococcus faecalis; settings: for MIC: first figure of MIC/MBC, read-out: MIC for E. faecalis; for Growth inhibition of the pathogen of interest compared to the compound of Example 14 in WO 2018/229141: conclusion from Table 3 (E. faecalis and MRSA)
Protocol: as §3

E. faecalis OG1RF = assay: Combined activity with gentamicin, vancomycin or ampicillin, E. faecalis OG1RF; format: cell-based, Enterococcus faecalis; settings: for E. faecalis activity, combination with gentamicin compared to gentamicin alone, compound alone and comparative example alone / E. faecalis activity, combination with gentamicin compared to the combination of the comparative example and gentamicin / E. faecalis activity, combination with vancomycin compared to vancomycin alone or compound alone: subinhibitory compound 1-4 μM, OD600 24 h; for E. faecalis activity, combination with gentamicin compared to gentamicin alone, compound alone and comparative example alone / E. faecalis activity, combination with gentamicin compared to the combination of the comparative example and gentamicin / OD600 at 24 h when combined with gentamicin / Synergistic effect when combined with gentamicin: gentamicin 16 μg/ml; for E. faecalis activity, combination with vancomycin compared to vancomycin alone or compound alone: vancomycin 1 μg/ml; for OD600 at 24 h when combined with gentamicin / Synergistic effect when combined with gentamicin: compound 1 μM; for Synergistic effect when combined with gentamicin: 24 h, n.d. = activity not observed
Protocol: as §1, §2
[…]. MIC/MBC values for the compounds administered alone are also shown for comparison. Unless otherwise stated, the compound was provided in a concentration of 1 μM.

E. faecalis [3] = assay: Minimum Bactericidal Concentration (MBC) assay, E. faecalis; settings: for MBC for E. faecalis: second figure of MIC/MBC
MRSA [4] = assay: Minimum Bactericidal Concentration (MBC) assay, MRSA; settings: compound alone, no antibiotic, MIC cultures plated on BHI, second figure of MIC/MBC, n.d. = activity not observed at the concentrations tested; for MBC: Staphylococcus aureus, MRSA, read-out: MBC for MRSA, Table 3
[5] = Staphylococcus aureus, MRSA, Table 3, compound alone, OD600, first figure of MIC/MBC
[6] = Enterococcus faecalis, 24 h, Table 3, compound alone, no antibiotic, 24 h, 37° C., OD600, n.d. = activity not observed at the concentrations tested
[7] = Table 4, compound administered alone, n.d. = activity not observed

Structure (SMILES) | MRSA activity, combination with ampicillin compared to ampicillin alone or compound alone (MRSA 1369) | MRSA activity, combination with vancomycin compared to vancomycin alone or compound alone (MRSA 1369) | MIC (MRSA [1]; [5]) | MIC (E. faecalis [2]; [6]) | Growth inhibition of the pathogen of interest compared to the compound of Example 14 in WO 2018/229141 (E. faecalis [2]; compound alone) | E. faecalis activity, combination with gentamicin compared to gentamicin alone, compound alone and comparative example alone (E. faecalis OG1RF) | E. faecalis activity, combination with gentamicin compared to the combination of the comparative example and gentamicin (E. faecalis OG1RF) | E. faecalis activity, combination with vancomycin compared to vancomycin alone or compound alone (E. faecalis OG1RF) | MRSA activity, combination with gentamicin compared to gentamicin alone or compound alone (MRSA 1369; gentamicin 0.05 μg/ml) | MIC (MRSA [1]; Table 3, compound alone, OD600, first figure of MIC/MBC) | MIC (E. faecalis [2]; Table 3, compound alone, no antibiotic, 24 h, 37° C., OD600, n.d. = activity not observed at the concentrations tested) | MBC for E. faecalis (E. faecalis [3]; Table 3, compound alone, no antibiotic, MIC cultures plated on BHI, n.d. = activity not observed at the concentrations tested) | MBC for MRSA (MRSA [4]; Table 3) | MIC (E. faecalis [2]; [7]) | MBC (E. faecalis [3]; Enterococcus faecalis, read-out: MBC for E. faecalis) | MBC for E. faecalis (E. faecalis [3]; [7]) | MBC (MRSA [4]) | OD600 at 24 h when combined with gentamicin (E. faecalis OG1RF) | Synergistic effect when combined with gentamicin (E. faecalis OG1RF) | MIC (E. faecalis [2]; Enterococcus faecalis, Table 4, compound administered alone, n.d. = activity not observed)
O=C(O)C12C[C@@H](c3c(Cl)cccc3Cl)C1Sc1c(C3CC3)c(Cc3cccc4ccccc34)cc(=O)n12 (stereo partly shown) [Example 33] | much larger extent | much larger extent | 5 µM (≈ 2.74 µg/mL) | 5 µM (≈ 2.74 µg/mL) | substantially similar extent or to a higher extent | much larger extent | much larger extent | much larger extent |  |  |  |  |  |  |  |  |  |  |  | 
O=C(O)C12C[C@@H](c3cccc(Cl)c3)C1Sc1c(C3CC3)c(Cc3cc4ccccc4s3)cc(=O)n12 (stereo partly shown) [Example 30] |  | much larger extent | 5 µM (≈ 2.6 µg/mL) | 5 µM (≈ 2.6 µg/mL) |  | much larger extent | much larger extent | much larger extent | much larger extent |  |  |  |  |  |  |  |  |  |  | 
O=C(O)C12C[C@@H](c3cccc(Cl)c3)C1Sc1c(C3CC3)c(Cc3cccc4ccccc34)cc(=O)n12 (stereo partly shown) [Example 11] |  |  |  |  | substantially similar extent or to a higher extent | much larger extent |  |  |  | 4 µM (≈ 2.06 µg/mL) | 4 µM (≈ 2.06 µg/mL) | 25 µM | 10 µM |  |  |  |  |  |  | 
O=C(O)C12C[C@@H](c3cccc(C(F)(F)F)c3)C1Sc1c(C3CC3)c(Cc3cccc4ccccc34)cc(=O)n12 (single isomer, unassigned) [Example 3] |  |  | 5 µM (≈ 2.74 µg/mL) | 10 µM (≈ 5.48 µg/mL) |  |  |  |  |  |  |  |  |  | 10 µM (≈ 5.48 µg/mL) | 25 µM (≈ 13.7 µg/mL) | 25 µM | 5 µM (≈ 2.74 µg/mL) | OD600 = 0.35 at 24 h | Yes | 
O=C(O)C12C[C@@H](c3cc(Cl)cc(Cl)c3)C1Sc1c(C3CC3)c(Cc3cccc4ccccc34)cc(=O)n12 (stereo partly shown) [Example 15] | much larger extent | much larger extent | 2 µM (≈ 1.1 µg/mL) | 3 µM (≈ 1.65 µg/mL) | substantially similar extent or to a higher extent | much larger extent | much larger extent |  |  |  |  |  |  |  |  |  | 4 µM (≈ 2.19 µg/mL) | OD600 = 0 | Yes | 3 µM (≈ 1.65 µg/mL)

Source: patent publication US12503476B2, “Ring-fused 2-pyridone compounds, methods for preparation thereof and their use in the treatment and/or prevention of a disease involving gram-positive bacteria” (QURETECH BIO AB, priority 2020, dated 2025)
